Laboratory results: patent US20100115663A1, “Acetyl-CoA Carboxylase Herbicide Resistant Sorghum” (priority 2007, published 2010)

Columns and labels:
[1] = system: Tx2783, an herbicide susceptible elite sorghum genotype; assay: Greenhouse herbicide spray selection, susceptible check; type: in vivo
Text: (§1) Seeds of 83 wild sorghum populations from Bolivia were planted in a greenhouse for comparison with Tx2783, an herbicide susceptible elite sorghum genotype. Wild sorghum genotypes were planted in flats containing MetroMix 360 potting soil (Sun Gro) and greenhouse grown. Tx2783 was planted with the wild accessions in each flat for comparison. In one selection using clethodim, plants were sprayed with 0.09 lb ai clethodim acre^−1 at 18 days after planting. […] In one selection using fluazifop-P, flats with Tx2783 and wild accessions were sprayed with a rate of 0.12 lb ai fluazifop-P acre^−1 at 18 days after planting and with 0.36 lb ai fluazifop-P acre^−1 at 32 days after planting. […] In a third experiment, plants were sprayed with a rate of 0.05 lb ai quizalofop acre^−1 at 18 days after planting and with 0.11 lb ai quizalofop acre^−1 at 32 days after planting.

[2] = system: wild sorghum populations from Bolivia; assay: Greenhouse herbicide spray selection, wild accessions; type: in vivo; details: 83 wild populations
Text: as §1

[3] = system: Bol-71 wild sorghum genotype; assay: Greenhouse herbicide spray selection, Bol-71; type: in vivo
Text: as §1

[4] = system: Pioneer 84G62 (herbicide susceptible control); assay: Mode of inheritance greenhouse spray test, susceptible control; type: in vivo, sorghum; details: 0.045 lb ai fluazifop-P acre^-1 at 14 days after planting; n=3
Description: (§2) The mode of inheritance of herbicide tolerance was determined by planting seeds of Bol-71, F1 generation of cross ATx623 x Bol-71, and Pioneer 84G62 (herbicide susceptible control) in flats containing MetroMix 360 potting soil in a greenhouse using a randomized complete block design (n=3). The plants were sprayed with 0.045 lb ai fluazifop-P acre^−1 at 14 days after planting. Pioneer 84G62 died between 12-16 days after spraying.

[5] = system: Bol-71; assay: Mode of inheritance greenhouse spray test, Bol-71; type: in vivo, wild sorghum; details: 0.045 lb ai fluazifop-P acre^-1 at 14 days after planting; n=3
Description: as §2

[6] = system: F1 generation of cross ATx623 x Bol-71; assay: Mode of inheritance greenhouse spray test, F1 hybrid; type: in vivo, sorghum; details: 0.045 lb ai fluazifop-P acre^-1 at 14 days after planting; n=3
Description: as §2

[7] = 0.05 lb ai quizalofop acre^-1 at 18 days and 0.11 lb ai acre^-1 at 32 days after planting
[8] = 0.12 lb ai fluazifop-P acre^-1 at 18 days and 0.36 lb ai acre^-1 at 32 days after planting

| Structure (SMILES) | plant response to spraying [1, 7] | plant response to spraying [2, 7] | tolerance to herbicide [3, 7] | plant response to spraying [1, 8] | plant response to spraying [2, 8] | tolerance to herbicide [3, 8] | time at which plants died [4] | herbicide damage [5] | herbicide damage [6] |
| --- | --- | --- | --- | --- | --- | --- | --- | --- | --- |
| CC(Oc1ccc(Oc2cnc3cc(Cl)ccc3n2)cc1)C(=O)O (stereo not drawn) [quizalofop] | died | many of the wild sorghums died | high levels of tolerance |  |  |  |  |  |  |
| C[C@@H](Oc1ccc(Oc2ccc(C(F)(F)F)cn2)cc1)C(=O)O [fluazifop-P] |  |  |  | died | many of the wild sorghums died | high levels of tolerance | 12-16 days after spraying | no herbicide damage | no herbicide damage |
